Earlier results in patent publication US20060122127A1, “Methods for reducing the side effects associated with mirtzapine treatment” (Cypress Bioscience, Inc., priority 2004, published 2006).

What was measured:
[1] = tested on: tonic extension seizures induced by maximal electroshock; conditions: animals
[2] = 100-200 mg/d, patients with neuropathic pain
[3] = tested on: clonic seizures induced by subcutaneous pentylenetetrazol; conditions: animals
[4] = obese patients

Structure (SMILES) | patients with weight gain of greater than or equal to 7% of body weight (controlled studies (placebo 0%)) [%] | patients reporting appetite increase (controlled studies (placebo 2%)) [%] | anticonvulsant activity against tonic extension seizures [1] | patients whose subjective ratings of pain improved by at least 50% [2] [%] | anticonvulsant activity against clonic seizures [3] | loss of body weight ([4]; 32 week extension phase (placebo 1.8% loss)) [%] | reduction of body weight ([4]; following 16 weeks of therapy (placebo 1% loss)) [%]
CN(C)CCC=C1c2ccccc2CCc2ccccc21 [amitriptyline] | 5.9 | 6 | – | – | – | – | –
NS(=O)(=O)Cc1noc2ccccc12 [zonisamide, 1,2-benzisoxazole-3-methanesulfonamide] | – | – | effective | 59 | ineffective | 9.4 | 6
